Data: PMC3648489, “The sodium glucose cotransporter 2 inhibitor empagliflozin does not prolong QT interval in a thorough QT (TQT) study” (Cardiovascular Diabetology, 2013)
Where “and” joins values, the source holds several entries; their conditions need not be identical. Equal entries are not always repeated. Where two headings read alike, the source gives them in different places.

Tests used:
healthy volunteers [1] = assay: Thorough QT study: triplicate 12-lead ECG, QTcN and heart rate change from baseline; format: in vivo, human; details: for Difference from placebo in mean QTcN change from baseline, mean (SE): 1−4 hours after dosing; for Placebo-corrected MCfB in QTcN from all ECGs (90% CI): 0.5-24 hours after dosing; for Maximum upper CI of placebo-corrected QTcN change from baseline over the time course: 90% CI; for Range of adjusted means of placebo-corrected QTcN change from baseline over the time course: time points 0.5-24 hours
Protocol: This thorough QT study (TQT) was a randomised, double-blind (moxifloxacin open), placebo-controlled crossover trial which included the following treatments: 25 mg and 200 mg empagliflozin (Boehringer Ingelheim Pharma GmbH & Co. KG); 400 mg open-label moxifloxacin (Avalox®; Bayer Vital, Leverkusen, Germany); and two placebo periods, with a washout of at least seven days between treatments. Trial medication was administered in the morning after an overnight fast.
ECG recordings were made at screening and at the end of the study as part of the safety evaluation. For the QTc evaluation, ECG recordings were made on study drug administration days (as ECG profiles) at 60, 50 and 40 minutes pre-dose (to derive the period-specific baseline), and at 0.5, 1, 1.5, 2, 2.5, 3, 4, 6, 8, 12 and 24 hours post-dose (last three time points omitted for moxifloxacin treatment). At each time point, triplicate standard 12-lead ECGs (I, II, III, aVR, aVL, aVF, V1–V6) of 10 seconds’ duration each were recorded after at least 5 minutes’ rest in the supine position using CardioSoft ECG recording machines (GE Healthcare, Freiburg, Germany). ECGs were sent to a central laboratory for evaluation of PR, QRS, RR and QT intervals. The semi-automatic approach used for determination of the fiducial points provided an automatic pre-assessment using a computer algorithm, which was reviewed by a specialist and adjusted if necessary. This review was performed blinded with regard to treatment and time point.
Data from four cardiac cycles per ECG were averaged. A population heart rate-corrected QT interval (QTcN) was derived by determining the exponent δ of the relationship: QT ~ (1000 / RR)^δ (where δ is the regression effect of the covariate) using a linear mixed model on log-transformed RR and QT data (measured in ms). Data from triplicate ECGs were then averaged for each time point.
The primary endpoint was the mean change from baseline (MCfB) in QTcN which was the mean QTcN derived from ECGs obtained 1–4 hours post-dose minus mean QTcN from baseline ECGs obtained pre-dose at each visit. Plasma concentrations of both empagliflozin and moxifloxacin were expected to reach peak levels within this three-hour window, ensuring the most relevant levels of drug exposure.
(§1) Secondary endpoints were the changes from period baseline in QTcN at any time point between 0.5–24 hours after dosing. In addition, the MCfB 2–4 hours after dosing (for assessment of the moxifloxacin effect), and the MCfB of all ECGs taken 0.5–24 hours after dosing were evaluated. Safety and tolerability were evaluated based on physical examination, vital signs, ECG, clinical laboratory tests, adverse events (AEs) and the physician’s assessment of global tolerability.
Briefly, the primary analysis compared changes in the primary endpoint (QTcN MCfB over 1–4 hours) using an analysis of covariance (ANCOVA) model with ‘sequence’, ‘period’ and ‘treatment’ as fixed effects, ‘subjects nested within sequences’ as a random effect, and ‘pre-dose baseline’ as a covariate. Analyses were performed using pair-wise comparisons of the trial treatments. The saturated repeated measurements crossover (RMC) model with unstructured covariance using pair-wise comparisons of the trial treatments was used to evaluate changes from baseline in QTcN at any time point between 0.5–24 hours after dosing. […] For descriptive statistics and the exposure-response analysis, the changes from baseline in QTcN of the placebo periods were averaged prior to the derivation of the placebo corrected MCfB.
In agreement with ICH E14, all tests were performed one-sided against the threshold level of regulatory concern of 10 ms with type-I error of α=5%, which is statistically equivalent to the calculation of two-sided 90% confidence intervals for the adjusted mean estimates. […]

healthy volunteers [2] = assay: Safety and tolerability (adverse events) in the TQT study; format: in vivo, human
Protocol: as §1
Categorical endpoints such as AEs, cardiologic assessments and occurrence of ECG intervals beyond thresholds of regulatory concern (e.g. QTc >450 ms) were analysed based on incidence rates adjusted for the number of periods in which the treatment was given. Additionally, the analysis of such events in periods with any of the two doses of empagliflozin compared with the two placebo periods provides a direct comparison of incidence rates. All analyses were performed on the “full analysis set”, which comprised all recorded data of all subjects who received at least one dose of study treatment and had at least one ECG endpoint assessment at baseline and post treatment. No imputation for missing data was planned or performed.

healthy volunteers [3] = tested on: healthy volunteers; design: method as in PMID 19238652, PMID 15165918, PMID 15903123, PMID 11180026; details: moxifloxacin 400 mg; cited from earlier work
[4] = Empagliflozin plasma pharmacokinetics (HPLC-MS/MS) in the TQT study; format: in vivo, human; details: for Tmax / AUC(0-t) / Cmax: human; for Tmax: po, read-out: tmax, median; for AUC(0-t): read-out: AUC0−tz, gMean; for Cmax: read-out: Cmax, gMean
Protocol: Blood samples for pharmacokinetic measurements were taken one hour before drug administration and at the same post-dose time points as ECG measurements, except for the moxifloxacin periods. Empagliflozin concentrations in plasma were determined using a validated high performance liquid chromatography, tandem mass spectrometry (HPLC-MS/MS) assay with a lower limit of quantification of 1.11 nmol/L (0.5 ng/mL). Results were calculated using peak area ratios and calibration curves were created using weighted (1/x2) quadratic regression. […] Pharmacokinetic parameters included Cmax, tmax which were determined directly from the plasma concentration-time profiles of each, and area under the plasma concentration curve from zero to the last quantifiable time point (AUC0–tz), calculated using the linear trapezoidal method for ascending concentrations and the log trapezoidal method for descending concentrations. Pharmacokinetic parameters were determined using WinNonlin™ software v5.2 (Pharsight Corporation, Mountain View, California, USA).

[5] = Earlier single-dose pharmacokinetic study of empagliflozin in healthy volunteers; format: in vivo, human; details: 200 mg versus 25 mg; based on ref 10
[6] = tested on: human ether-a-go-go related gene (hERG)-mediated potassium current; design: method as in unpublished data; details: transfected HEK293 cells; ref unpublished data; cited from earlier work
[7] = tested on: guinea pig papillary muscle; design: method as in unpublished data; details: empagliflozin doses of ≥10 μM (so in the source); ref unpublished data; cited from earlier work
[8] = design: method as in PMID 27121669; details: cited from earlier work; for Cmax: read-out: Expected mean Cmax
[9] = moxifloxacin 400 mg, 2-4 hours after administration
[10] = empagliflozin 25 mg, 1-4 hours after administration
[11] = empagliflozin 200 mg, 1-4 hours after administration
[12] = empagliflozin 25 mg single oral dose, plasma, n=28
[13] = empagliflozin 200 mg single oral dose, plasma, n=30
[14] = single oral dose of 25 mg, healthy volunteers

SMILES: COc1c(N2C[C@@H]3CCCN[C@@H]3C2)c(F)cc2c(=O)c(C(=O)O)cn(C3CC3)c12 [Moxifloxacin, moxifloxacin, reference compound]
- Number of volunteers with a change in QTcN more than 30 ms (healthy volunteers [1]; moxifloxacin 400 mg): Five
- QTcN mean change from baseline: ΔQTcN, adjusted mean (SE) (healthy volunteers [1]; moxifloxacin 400 mg single dose, open-label, 2-4 hours after administration, n=29): 16.0 (1.2) ms
- Volunteers exceeding the QTcN threshold of 450 ms (healthy volunteers [1]; moxifloxacin 400 mg, 0.5-6 hours post-dose, two volunteers): 6.9%
- Difference from placebo: ΔΔHR, adjusted mean (SE) (healthy volunteers [1]; [9]): 2.2 (0.6) bpm
- HR mean change from baseline: ΔHR, adjusted mean (SE) (healthy volunteers [1]; [9]): 2.0 (0.6) bpm
- Difference from placebo: ΔΔQTcN (placebo-corrected MCfB in QTcN), adjusted mean (healthy volunteers [1]; moxifloxacin 400 mg, 2-4 hours post-dose, assay sensitivity): 12.4 (1.0) ms
- Difference from placebo: ΔΔQTcN (placebo-corrected MCfB in QTcN), adjusted mean (healthy volunteers [1]; moxifloxacin 400 mg, 2-4 hours post-dose, assay sensitivity, listed as moxifloxacin): 12.4 (10.7, 14.1) ms
- Serious AE leading to study discontinuation (healthy volunteers [2]; moxifloxacin, one participant, not considered related to study medication): fatal car accident
- Prolongation of heart rate-corrected QT interval compared to placebo (healthy volunteers [3]): 6 to 15 ms

SMILES: OC[C@H]1O[C@@H](c2ccc(Cl)c(Cc3ccc(O[C@H]4CCOC4)cc3)c2)[C@H](O)[C@@H](O)[C@@H]1O [Empagliflozin, empagliflozin]
- Difference from placebo in mean QTcN change from baseline, mean (SE) (healthy volunteers [1]; 25 mg empagliflozin, primary analysis model with placebo period 1 only): 0.2 (0.9) ms
- Difference from placebo in mean QTcN change from baseline, mean (SE) (healthy volunteers [1]; 25 mg empagliflozin, primary analysis model with placebo period 2 only): 0.6 (1.0) ms
- Difference from placebo in mean QTcN change from baseline, mean (SE) (healthy volunteers [1]; 200 mg empagliflozin, primary analysis model with placebo period 1 only): -0.5 (0.8) ms
- Difference from placebo in mean QTcN change from baseline, mean (SE) (healthy volunteers [1]; 200 mg empagliflozin, primary analysis model with placebo period 2 only): 0.1 (0.8) ms
- Slope estimates of exposure-response relationship between empagliflozin and heart rate (healthy volunteers [1]; both doses (25 mg and 200 mg), CIs include zero): slope estimates close to zero
- Range of adjusted means of placebo-corrected heart rate change from baseline over the time course (healthy volunteers [1]; both empagliflozin doses (25 mg and 200 mg)): -1.2 to 1.5 bpm
- 90% CIs of placebo-corrected heart rate change from baseline over the time course (healthy volunteers [1]; both empagliflozin doses (25 mg and 200 mg), all CIs within): -3 to 3 bpm
- Intercept of exposure-response analysis of placebo-corrected QTcN change from baseline (healthy volunteers [1]; empagliflozin 25 mg): 0.35 ms
- Slope (estimate) of exposure-response analysis of placebo-corrected QTcN change from baseline (healthy volunteers [1]; empagliflozin 25 mg): -0.0007 ms/(nmol/L)
- QTcN mean change from baseline: ΔQTcN, adjusted mean (SE) (healthy volunteers [1]; empagliflozin 25 mg single oral dose, 1-4 hours after administration, n=28): 4.3 (1.1) ms
- Placebo-corrected MCfB in QTcN from all ECGs (90% CI) (healthy volunteers [1]; empagliflozin 25 mg): 0.7 (90% CI: -0.4, 1.7) ms
- Volunteers exceeding the QTcN threshold of 450 ms (healthy volunteers [1]; empagliflozin 25 mg, 0.5-24 hours post-dose, one volunteer): 3.6%
- Difference from placebo: ΔΔHR, adjusted mean (SE) (healthy volunteers [1]; [10]): -0.9 (0.5) bpm
- HR mean change from baseline: ΔHR, adjusted mean (SE) (healthy volunteers [1]; [10]): -1.2 (0.5) bpm
- Difference from placebo: ΔΔQTcN (placebo-corrected MCfB in QTcN), adjusted mean (healthy volunteers [1]; empagliflozin 25 mg, 1-4 hours after dosing, both placebo periods): 0.6 (0.8) ms
- Difference from placebo: ΔΔQTcN (placebo-corrected MCfB in QTcN), adjusted mean (healthy volunteers [1]; empagliflozin 25 mg, 1-4 hours after dosing, both placebo periods, listed as empagliflozin): 0.6 (90% CI: -0.7, 1.9) ms and 0.6 (90% confidence interval [CI]: -0.7, 1.9) ms
- Maximum upper CI of placebo-corrected QTcN change from baseline over the time course (healthy volunteers [1]; empagliflozin 25 mg): 4.7 ms
- Predicted value of placebo-corrected change from baseline QTcN at gMean of Cmax, estimate (healthy volunteers [1]; empagliflozin 25 mg, at gMean Cmax 768 nmol/L): -0.20 ms
- Range of adjusted means of placebo-corrected QTcN change from baseline over the time course (healthy volunteers [1]; empagliflozin 25 mg): -2.7 to 2.2 ms
- Intercept of exposure-response analysis of placebo-corrected QTcN change from baseline (healthy volunteers [1]; empagliflozin 200 mg): -0.60 ms
- Slope (estimate) of exposure-response analysis of placebo-corrected QTcN change from baseline (healthy volunteers [1]; empagliflozin 200 mg): -0.0000 ms/(nmol/L)
- QTcN mean change from baseline: ΔQTcN, adjusted mean (SE) (healthy volunteers [1]; empagliflozin 200 mg single oral dose, 1-4 hours after administration, n=30): 3.4 (0.9) ms
- Placebo-corrected MCfB in QTcN from all ECGs (90% CI) (healthy volunteers [1]; empagliflozin 200 mg): -0.2 (-1.2, 0.9) ms
- Volunteers exceeding the QTcN threshold of 450 ms (healthy volunteers [1]; empagliflozin 200 mg, 0.5-24 hours post-dose, two volunteers): 6.7%
- Difference from placebo: ΔΔHR, adjusted mean (SE) (healthy volunteers [1]; [11]): 0.0 (0.5) bpm
- HR mean change from baseline: ΔHR, adjusted mean (SE) (healthy volunteers [1]; [11]): -0.3 (0.5) bpm
- Difference from placebo: ΔΔQTcN (placebo-corrected MCfB in QTcN), adjusted mean (healthy volunteers [1]; empagliflozin 200 mg, 1-4 hours after dosing, both placebo periods): -0.2 (0.7) ms
- Difference from placebo: ΔΔQTcN (placebo-corrected MCfB in QTcN), adjusted mean (healthy volunteers [1]; empagliflozin 200 mg, 1-4 hours after dosing, both placebo periods, listed as empagliflozin): -0.2 (-1.4, 0.9) ms
- Maximum upper CI of placebo-corrected QTcN change from baseline over the time course (healthy volunteers [1]; empagliflozin 200 mg): 3.5 ms
- Predicted value of placebo-corrected change from baseline QTcN at gMean of Cmax, estimate (healthy volunteers [1]; empagliflozin 200 mg, at gMean Cmax 4860 nmol/L): -0.64 ms
- Range of adjusted means of placebo-corrected QTcN change from baseline over the time course (healthy volunteers [1]; empagliflozin 200 mg): -1.8 to 1.6 ms
- Dose proportionality of empagliflozin exposure ([4]; 25 mg and 200 mg single doses): increased approximately dose proportionally
- tmax, median [4, 12]: 1.5 h
- Tmax ([4]; plasma, 25 mg, empagliflozin 25 mg single oral dose, plasma, n=28): ~1.5 h
- Tmax ([4]; plasma, 200 mg, empagliflozin 200 mg single oral dose, plasma, n=30): ~1.8 h
- AUC(0-t) [4, 12]: 4.86 µM·h
- Cmax [4, 12]: 768 nM
- AUC(0-t) [4, 13]: 36.4 µM·h
- Cmax [4, 13]: 4860 nM
- Volunteers experiencing AEs (healthy volunteers [2]; human, in vivo): 23.3%
- Cmax ratio supratherapeutic dose versus therapeutic dose [5]: ~ 7 fold
- Interaction with hERG-mediated potassium current [6]: No relevant interactions
- Effect on action potential configuration or contractile function [7]: no effect on action potentials
- Effect of food on drug exposure [8]: no clinically relevant effects of food on drug exposure
- Terminal elimination half-life ([8]; doses ≥10 mg): 10 to 13 h
- Time to peak levels ([8]; single doses of empagliflozin (≥800 mg as printed)): 1.5 to 2.5 h
- Mean tmax [8, 14]: 2.2 h
- Cmax [8, 14]: 505 nM
- Cmax ([8]; single oral dose of 200 mg, healthy volunteers): 3490 nM
